In this assay the target is T1, BT0984^GH139 (Bacteroides thetaiotaomicron, UniProt Q8A933).
T1 construct: gene BT_0984; full-length gene in pET28a (NheI/XhoI), N-terminal His6 tag, expressed in E. coli BL21(DE3) or TUNER; cobalt IMAC purified
T1 sequence (Q8A933 1-803): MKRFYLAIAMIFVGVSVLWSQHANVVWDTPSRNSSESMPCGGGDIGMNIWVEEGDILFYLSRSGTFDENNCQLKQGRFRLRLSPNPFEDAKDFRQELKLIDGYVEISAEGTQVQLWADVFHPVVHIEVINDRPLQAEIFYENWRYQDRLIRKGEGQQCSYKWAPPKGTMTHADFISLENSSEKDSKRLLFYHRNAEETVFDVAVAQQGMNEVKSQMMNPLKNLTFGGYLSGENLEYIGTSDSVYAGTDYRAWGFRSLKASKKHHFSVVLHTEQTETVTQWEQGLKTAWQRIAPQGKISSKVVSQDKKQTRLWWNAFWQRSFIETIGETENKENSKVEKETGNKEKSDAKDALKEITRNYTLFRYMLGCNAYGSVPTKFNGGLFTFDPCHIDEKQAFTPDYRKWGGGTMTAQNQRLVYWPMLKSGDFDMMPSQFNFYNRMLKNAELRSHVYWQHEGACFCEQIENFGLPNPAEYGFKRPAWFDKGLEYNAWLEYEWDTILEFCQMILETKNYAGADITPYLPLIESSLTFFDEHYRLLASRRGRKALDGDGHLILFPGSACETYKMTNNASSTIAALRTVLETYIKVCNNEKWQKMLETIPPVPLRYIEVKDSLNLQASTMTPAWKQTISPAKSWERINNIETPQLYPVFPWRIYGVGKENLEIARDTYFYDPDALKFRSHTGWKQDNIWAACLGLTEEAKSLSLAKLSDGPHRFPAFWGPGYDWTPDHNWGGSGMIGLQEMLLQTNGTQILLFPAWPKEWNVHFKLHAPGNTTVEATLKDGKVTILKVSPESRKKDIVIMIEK
Put plainly: thin layer chromatography. Type of assay: biochemical. As to conditions: 1 μM enzyme, 10 mM MOPS pH 7.0, 150 mM NaCl, 37 °C; slow.

In the case of `CO[C@@H]1[C@H](Oc2ccc([N+](=O)[O-])cc2)O[C@@H](C)[C@@H](O)[C@H]1O` [4NP-MeFuc, 4-nitrophenyl-2-O-methyl-α-L-fucopyranoside], the thin layer chromatography result was “displayed activity on 4-nitrophenyl 2-O-methyl-α-L-fucoside (4NP-MeFuc)”.

Source of the values: PMC12282258, “Understanding the substrate recognition and catalytic mechanism of 2-O-methyl fucosidases from glycoside hydrolase family 139” (The Journal of Biological Chemistry, 2025).
